Reference: patent EP0181109B1, “N6-benzopyrano- and benzothiopyrano-adenosines” (WARNER-LAMBERT COMPANY, priority 1984, dated 1986)

Tested on: Carrageenan pleurisy
Assay: Carrageenan Pleurisy Assay
Type: in vivo
Conditions: IP route, rat
Experimental: Assessment of another activity is provided by the carrageenan pleurisy assay. This assay indicates antiinflammatory activity. Carrageenan pleurisy is induced as previously described by Carter, G. W., et al., in J. Pharm. Pharmacol 34:66-67, 1982. Carrageenan ([…]) is injected intrapleurally in a 0.25 ml volume of pyrogen-free saline. Four hours later, the rats are sacrificed and 2 ml of a phenol red solution (325 mg phenol red in 1 liter of 0.05 M phosphate buffered saline) are added to each pleural cavity. The contents of the cavities are mixed and transferred to glass test tubes. A 50 pl aliquot is removed from each tube and exudate cells are counted after red blood cells lysis (with Zapoglobin; Coulter Electronics, Hialeah FL) using a Coulter model ZBI counter. The remaining exudate-phenol red mixture is centrifuged at […] for 15 minutes. One hundred pl of the supernatent fluid is diluted with 3.9 ml of phosphate buffer (0.072 M of tribasic sodium phosphate Na3PO4·12H2O, in water) and the absorbance is measured at 650 nm.
Exudate volume is calculated as follows: [formula] where V1 = unknown volume of exudate, V2 = volume of dye added to cavity (2 ml), A1 = absorbance of exudate (assumed to be zero), A2 = absorbance of the phenol red solution, A3 = absorbance of exudate and phenol red solution.
Inhibition of exudate or formation is calculated by the following equations: • % inhibition (exudate) = [formula] • % inhibition (cell count) = [formula] ID50 values are calculated by Probit analysis.
The compound of Example 1 was adminstered one hour prior to carrageenan injection.

SMILES | % Inhibition Exudate (3 mg/kg) | % Inhibition WBC (3 mg/kg) | % Inhibition Exudate (10 mg/kg) | % Inhibition WBC (10 mg/kg) | % Inhibition Exudate (1 mg/kg) | % Inhibition WBC (1 mg/kg) | % Inhibition Exudate (30 mg/kg) | % Inhibition WBC (30 mg/kg)
OC[C@H]1O[C@@H](n2cnc3c(NC4COc5c(Cl)cccc5C4)ncnc32)[C@H](O)[C@@H]1O (stereo partly shown) [Example 5] | 22.7% | 27.2% | 40.2% | 68.0% |  |  |  | 
COc1ccc2c(c1)CC(Nc1ncnc3c1ncn3[C@@H]1O[C@H](CO)[C@@H](O)[C@H]1O)CO2 (stereo partly shown) [Example 6] | 42.2% | 37.5% |  |  | 50.9% | 49.8% |  | 
Cc1cc2c(cc1C)OCC(Nc1ncnc3c1ncn3[C@@H]1O[C@H](CO)[C@@H](O)[C@H]1O)C2 (stereo partly shown) [Example 9, N^6-[6,7-Dimethyl-3-chromanylamino]adenosine] | 12.5% | 13.0% |  |  |  |  | 31.9% | 30.6%
OC[C@H]1O[C@@H](n2cnc3c(NC4CCSc5ccccc54)ncnc32)[C@H](O)[C@@H]1O (stereo partly shown) [Example 15] |  |  | 63.9% | -16.9% | 13.5% | -10.7% |  | 
